The numbers were not newly measured in patent US10045993B2, “Pharmaceutical preparation containing entecavir as active ingredient, and preparation method therefor” (CTC BIO, INC., priority 2014, dated 2018), which cites them from elsewhere.

The conditions of the data set: pH 7.9, 25° C. (room temperature).

Each structure is given as a SMILES string.

For `C=C1[C@H](CO)[C@@H](O)C[C@@H]1n1cnc2c(=O)[nH]c(N)nc21` [Entecavir, [1-S-(1α,3α,4β)]-2-amino-1,9-dihydro-9-[4-hydroxy-3-(hydroxymethyl)-2-methylenecyclopentyl]-6H-purin-6-one], the moisture solubility was 2400 µg/mL.
